The values below come from EP0804206B1, “ANTIFUNGAL AGENT CONTAINING CROTAMITON, AND SALICYCLIC ALDEHYDE” (Pierre Fabre Dermo-Cosmetique, priority 1995, dated 1996).

The experiment has as its system Trichophyton mentagrophytes n° 8611. In words: Minimal fungistatic concentration (CMF) of the products alone and combined, with FIC index. It counts as cell-based. An excerpt: La synergie peut être mise-en évidence par le calcul des index FIC (Fractional Inhibitory Concentration) ou FBC (Fractional Bactericidal Concentration) des produits. Pour cela, on mesure la valeur de la CMF (ou concentration minimale fongistatique), ou de la CMϕ (ou concentration minimale fongicide), des principes actifs à tester vis-à-vis d'un type de germe.
Le FIC d'un produit A est défini comme : FICA (CMF du produit A en association)/(CMF du produit A seul) [formula]
L'association de deux antifongiques A et B est synergique si la somme FIC des rapports (FICA + FICB) est inférieure ou égale à 0,75.
On considère qu'il y a simple additivité pour des valeurs de FIC comprises entre 0,75 et 1,1, et indifférence dans l'intervalle compris entre 1,1 et 2; au-delà, l'association est notée antagoniste.
Après détermination des niveaux de concentrations minimales inhibitrices pour chaque souche, les associations entre les différents principes actifs sont testées. Le FIC Index =(CMI crotamiton associé)/(CMI crotamiton seul)+(CMI salicylaldéhyde associé)/(CMI salicylaldéhyde seul) [formula] est calculé.
Les activités antifongiques du crotamiton et du salicylaldéhyde ont été recherchées sur Trichophyton mentagrophytes.
Les concentrations minimales fongistatiques des produits seuls et associés sont présentées ici.
• * Souche • Trichophyton mentagrophytes n° 8611 • * Milieux de culture • Bouillon Sabouraud • Gélose Sabouraud • Eau distillée stérile • * Produits • Crotamiton (Borhinger, lot-209313) • Salicylaldéhyde Prolabo Rectapur encapsulé dans β cyclodextrines = formule aldéhydique
Les solutions-mère aqueuses des produits suivants ont été testées pour leur meilleure solubilité et sans artéfact d'activité antifongique : • Crotamiton : 0,2% dans 10% PEG 200 • Solution aqueuse à 10% aldhéhyde salicylique.
Les essais sont réalisés plusieurs fois car ces produits sont très volatils, rendant la lecture des tests très difficile. […]

Take `CC=CC(=O)N(CC)c1ccccc1C` [Crotamiton, N-éthyl-O crotonotoluidide]: the “fois moins de produit pour obtenir le même effet antifongique que les produits utilisés seuls” value (combined versus alone, formule aldéhydique at 10% aldehyde) was determined as 30 fois. Moreover, under “product alone, T. mentagrophytes calibrated at 10^6 spores per ml”, the “CMF = Concentrations Minimales Fongistatiques, Seul” value was 0,1%. In addition, the “CMF = Concentrations Minimales Fongistatiques, Associés” value (product in the binary combination Crotamiton - Formule aldéhydique, T. mentagrophytes 10^6 spores per ml) is recorded as 0,003%.
